Data taken from patent US20020184551A1, “Process for the preparation of deactivated rice bran lipase” (COUNCIL OF SCIENTIFIC & INDUSTRIAL RESEARCH, priority 2001, published 2002).
Like-named read-outs stand apart in the source and are kept apart here.

Tests used:
[1] = test system: rice bran lipase
Excerpt: The enzyme solution containing different concentrations of ligands was passed through a sephadex G25 column which was previously equilibrated with the elution buffer. The protein eluting immediately after the void volume was collected and assayed for the activity.
The enzyme was also checked for reversibility of its original activity after removal of ligands by gel filtrations on Sephadex G-25 column.

[2] = test system: rice bran lipase; settings: lipase 2 mg/ml, substrate 5% w/v, CaCl2 0.1 M
Protocol: To approximately 2 mg of rice bran lipase in 0.05 M sodium phosphate buffer, pH 7.4 is added different concentrations of ligands ranging from 1:10 to 1:1500 mole to mole ratio of protein to ligand and incubated for 1 h at30° C. in Innova™ 4000 incubator shaker at 150 rpm. The reaction mixture was checked for enzyme activity by pH-stat method using Mettler Toledo DL12 titrator using 5% solution of triacetin or tributyrin as substrate. Respective blank solutions where the enzyme was inactivated by the addition of distilled alcohol was also used. The activity was expressed in terms of control activity as microequivalents of alkali consumed per mg of protein per hour.
To approximately 2 mg of rice bran lipase in 0.05 m sodium phosphate buffer, pH 7.4 is added different concentrations of ligand ranging from 1:10 to 1:1500 on a mole to mole ratio and incubated fpr 1 hr at 30° C. in Innova™ 4000 incubator shaker at 150 rpm. The reaction mixture was checked for enzyme activity by pH start method using mettler Toledo DL 12 titrator using 5% solution of triacetin or tributyrin as substrate. Respective blank solutions where the enzyme was inactivated by the addition of distilled alcohol was also used. The activity was expressed in terms of control activity as micro equivalent of alkali consumed per mg of protein per hour.

benzene boronic acid [ligand]
reversibility of enzyme activity after removal of ligand ([1]; 1:10 ratio, Sephadex G-25 column chromatography): able to recover the initial activity | reversibility of enzyme activity after removal of ligand ([1]; 1:1500 mole to mole ratio, gel filtration on Sephadex G-25 column): recovered almost its original activity | loss of initial activity of rice bran lipase ([2]; 1:10 mole to mole ratio of protein to ligand): 35% | loss of initial activity of rice bran lipase ([2]; 1:1500 mole/mole protein to ligand): ~77%
